The values below come from patent publication US4791133A, “Phenylene, furyl, and thienyl leukotriene B4 analogues” (G. D. Searle & Co., priority 1987, dated 1988).

Structures are written as SMILES. “And” between values parts separate entries of the source, which are not always exact repeats. Equal entries are not always repeated. Structures can show the parent of a compound that is named as a salt.

One test addresses T1, LTB4 receptors (Homo sapiens, UniProt Q15722).
T1 construct: neutrophils were purified from venous blood of normal human donors; endogenous in cells; host or cells: neutrophils purified from venous blood of normal human donors (purity ≥95%)
Description: LTB4 Receptor Binding Assay ((3H) LTB4, human neutrophils). As to conditions: 0.6 nM (3H) LTB4, human neutrophils; for IC50: 0° C., 45 minutes, pH 7.4, read-out: Inhibition of Receptor Binding of LTB4 IC50. The source says:
(§1) For use in both the "LTB4 receptor Binding Assay" and the "Human Neutrophil Degranulation Assay", neutrophils were purified from venous blood of normal human donors using standard techniques of dextran sedimentation, centrifugation on Histopaque® (density solution) and hypotonic lysis of erythrocytes (Boyum, A., Isolation of Leukocytes From Human Blood: Further Observations. Scand. J. Lab. Clin. Inves. 21 (Suppl. 97): 31, 1968). The purity of isolated neutrophils was ≥95%.
Neutrophils (4-6×10^6) in 1 ml of Hanks' balanced salt solution containing 10 mM Hepes Buffer (HBSS), pH 7.4 and 30 μM nordihydroguaiaretic acid were incubated with 0.6 nM (^3 H) LTB4 in the presence or absence of test compounds. The incubation was carried out at 0° C. for 45 minutes and terminated by adding 5 ml of ice-cold HBSS followed by rapid filtration of incubation mixture under vacuum through GF/C glass fiber filters. The filters were further washed with 10 ml HBSS and their radioactivity was determined. Specific binding was defined as the difference between total binding and nonspecific binding which was not displaced by 10^-7 M unlabeled LTB4.
The inhibition of specific binding was determined for representative compounds of this invention, and the corresponding IC50 values calculated (Table 1). An IC50 is the concentration of the compound of interest which will inhibit the binding of LTB4 by 50% of the LTB4 receptors. For example, for the compound of Example 7, the IC50 was determined to be approximately 5 μM.

For test [1], the system named is LTB4 induced neutrophil degranulation. In words: Human Neutrophil Degranulation Assay (LTB4 induced myeloperoxidase release). The format is cell-based. The note with it: LTB4 5×10^-8 M, cytochalasin B, human neutrophils, 7 minutes preincubation with compound, read-out: Inhibition of LTB4 Induced Neutrophil Degranulation IC50.
From the text: as §1
LTB4 induced neutrophil degranulation was determined by measuring the release of myeloperoxidase activity into the incubation medium. Neutrophils (3×10^6) in 1 ml HBSS solution was preincubated with cytochalasin B(5 μg) at 37° C. for 5 minutes, followed by preincubation with test compounds for 7 minutes. Neutrophils were then incubated for 2 to 20 minutes with either LTB4 (5×10^-8 M) or the chemotactic peptide f-met-leu-phe ([…]) to induce degranulation. Following incubation, samples were centrifuged and myleoperoxidase was extracted from the cell pellets by sonication in phosphate buffer containing 0.4% Triton X-100. Triton X-100 was also added to the supernatents to a concentration of 0.4%. The supernatants and the pellet extracts were then assayed spectrophotometrically for myeloperoxide activity by determining the rate of decomposition of H2 O2 with o-dianisidine as hydrogen donor as described by Renlund, D. G., MacFarlane, J. L., Christensen, R. D., Lynch, R. E., and Rothstein, G., A Quantitative And Sensitive Method For Measurement Of Myeloperoxidose, Clinical Research 28: 75A, 1980). Myeloperoxidase activity released into the supernatant was expressed as the percent of the average total activity (pellet plus supernatant).
The inhibition of LTB4 induced neutrophil degranulation was determined for representative compounds of this invention and their corresponding IC50 values were calculated (Table 1). The concentration of a compound which inhibited LTB4 induced neutrophil degranulation by 50% was determined to be its IC50 value.

T1 sequence (Q15722 whole entry): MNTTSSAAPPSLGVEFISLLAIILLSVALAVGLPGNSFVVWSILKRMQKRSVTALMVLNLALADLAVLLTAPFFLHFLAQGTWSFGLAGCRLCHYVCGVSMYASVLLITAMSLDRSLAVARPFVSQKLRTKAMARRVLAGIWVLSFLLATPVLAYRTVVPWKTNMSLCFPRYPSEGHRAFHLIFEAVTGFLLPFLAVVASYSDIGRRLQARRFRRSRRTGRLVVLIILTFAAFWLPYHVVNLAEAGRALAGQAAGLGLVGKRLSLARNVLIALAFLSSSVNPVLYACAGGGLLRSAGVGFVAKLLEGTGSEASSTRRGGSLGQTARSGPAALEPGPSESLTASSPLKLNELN

For the molecule `CCCCC/C=C\CC(O)c1ccc(/C=C\[C@@H](O)CCCC(=O)O)cc1` (stereo partly drawn) [Example 7, 7[4-(1-hydroxy-3Z-nonenyl)phenyl]-5S-hydroxy-6Z-heptenoic acid, lithium salt], the half-maximal inhibitory concentration (IC50) is ~5000 nM and 5000 nM on LTB4 receptors; 700 nM in test [1].

On to `CCCCCCCCC(O)c1ccc(/C=C\C(O)CCCC(=O)OC)cc1` (stereo not shown) [Example 12, Methyl 7-[4-(1-hydroxynonyl)phenyl]-5-hydroxy-6Z-heptenoate], for which the half-maximal inhibitory concentration (IC50) on LTB4 receptors was 1000 nM; in test [1], 650 nM.

For `CCCCCCCCC(O)c1ccc(/C=C\C(O)CCCC(=O)O)cc1` (stereo not shown) [Example 21, 7-[4-(1-hydroxynonyl)phenyl]-5-hydroxy-6Z-heptenoic acid, lithium salt], the IC50 on LTB4 receptors was 2000 nM; in test [1], 1000 nM.

Regarding `CCCCCCCCC(O)c1ccc(/C=C\C(O)CCCC(=O)O)s1` (stereo not shown) [Example 23, 7-[2-[5-(1-hydroxynonyl)]thienyl-5-hydroxy-6Z-heptenoic acid, lithium salt], the 50% inhibitory concentration (IC50) on LTB4 receptors turned out to be 5000 nM; in test [1], 1800 nM.

`CCCCCCCCC(O)c1ccc(C#CC(O)CCCC(=O)O)s1` (stereo not shown) [Example 22, 7-[2-[5-(1-hydroxynonyl)]thienyl-5-hydroxy-6Z-heptynoic acid, lithium salt] displayed an inhibition at 10 µM at LTB4 receptors (at 10μM) of 20%. Further, the IC50 in test [1] was 8700 nM.

A word on the IC50: it is the concentration needed to halve the response being measured. As usually defined, the inhibition is the drop in the measured response relative to a control, in per cent. A low value points to a weak effect.
